Consider eight compounds from patent US5773644A, “Cyclopropyl alkanoic acid derivatives” (G. D. Searle & Co., priority 1997, dated 1998).

For orientation: pIC50 means the negative decadic logarithm of the IC50, by convention in mol/L.

pIC50: −log10 of the molar value. Counter-ions that a name gives are not always drawn. Like-named read-outs stand apart in the source and are kept apart here.

Experiment [1] deals with T1, Human vitronectin receptor (αv β3) (Homo sapiens, UniProt P05106+P06756).
T1 construct: Human vitronectin receptor(αv β3) was purified from human placenta; from tissue; host or cells: human placenta
The experiment can be described thus: Vitronectin adhesion assay (solid phase receptor assay, competition with biotinylated vitronectin). The class given is binding. The method, then: Human vitronectin receptor(αv β3) was purified from human placenta as previously described [Pytela et al., Methods in Enzymology, 144:475-489 (1987)]. Human vitronectin was purified from fresh frozen plasma as previously described [Yatohgo et al., Cell Structure and Function, 13:281-292 (1988)]. Biotinylated human vitronectin was prepared by coupling NHS-biotin from Pierce Chemical Company (Rockford, Ill.) to purified vitronectin as previously described [Charo et al., J. Biol. Chem., 266(3):1415-1421 (1991)]. Assay buffer, OPD substrate tablets, and RIA grade BSA were obtained from Sigma (St. Louis, Mo.). Anti-biotin antibody was obtained from Calbiochem (La Jolla, Calif.). Linbro microtiter plates were obtained from Flow Labs (McLean, Va.). ADP reagent was obtained from Sigma (St. Louis, Mo.). This assay was essentially the same as previously reported [Niiya et al., Blood, 70:475-483 (1987)]. The purified human vitronectin receptor (αv β3) was diluted from stock solutions to 1.0 μg/mL in Tris-buffered saline containing 1.0 mM Ca^++, Mg^++, and Mn^++, pH 7.4 (TBS^+++). The diluted receptor was immediately transferred to Linbro microtiter plates at 100 μL/well (100 ng receptor/well). The plates were sealed and incubated overnight at 4° C. to allow the receptor to bind to the wells. All remaining steps were at room temperature. The assay plates were emptied and 200 μL of 1% RIA grade BSA in TBS^+++ (TBS^+++ /BSA) were added to block exposed plastic surfaces. Following a 2 hour incubation, the assay plates were washed with TBS^+++ using a 96 well plate washer. Logarithmic serial dilution of the test compound and controls were made starting at a stock concentration of 2 mM and using 2 nM biotinylated vitronectin in TBS^+++ /BSA as the diluent. This premixing of labeled ligand with test (or control) ligand, and subsequent transfer of 50 μL aliquots to the assay plate was carried out with a CETUS Propette robot; the final concentration of the labeled ligand was 1 nM and the highest concentration of test compound was 1.0×10^-4 M. The competition occurred for two hours after which all wells were washed with a plate washer as before. Affinity purified horseradish peroxidase labeled goat anti-biotin antibody was diluted 1:3000 in TBS^+++ /BSA and 125 μL were added to each well. After 30 minutes, the plates were washed and incubated with OPD/H2 O2 substrate in 100 mM/L Citrate buffer, pH 5.0. The plate was read with a microtiter plate reader at a wavelength of 450 nm and when the maximum-binding control wells reached an absorbance of about 1.0, the final A450 were recorded for analysis. The data were analyzed using a macro written for use with the EXCEL™ spreadsheet program. The mean, standard deviation, and %CV were determined for duplicate concentrations. The mean A450 values were normalized to the mean of four maximum-binding controls (no competitor added) (B-MAX). The normalized values were subjected to a four parameter curve fit algorithm [Rodbard et al., Int.

Experiment [2] deals with T2, Human fibrinogen receptor (αIIb β3) (Homo sapiens, UniProt P05106+P08514).
T2 construct: Human fibrinogen receptor (αIIb β3) was purified from outdated platelets; from tissue; host or cells: outdated platelets (human)
The experiment can be described thus: Purified IIb/IIIa receptor assay (solid phase receptor assay, competition with biotinylated vitronectin). The settings on record: inhibition of 50% of maximum binding of 1 nM biotinylated vitronectin; 2 h competition, room temperature, TBS+++ pH 7.4. The source says: Human fibrinogen receptor (αIIb β3) was purified from outdated platelets. (Pytela, R., Pierschbacher, […]., Suzuki, S., and […] acid adhesion receptors", Methods in Enzymology 144(1987):475-489.) Human vitronectin was purified from fresh frozen plasma as described in Yatohgo, T., Izumi, M., Kashiwagi, H., and Hayashi, M., "Novel purification of vitronectin from human plasma by heparin affinity chromatography," Cell Structure and Function 13(1988):281-292. Biotinylated human vitronectin was prepared by coupling NHS-biotin from Pierce Chemical Company (Rockford, Ill.) to purified vitronectin as previously described. (Charo, […]., Phillips, D. R., Hsu, M. A., Scarborough, R. M., "Inhibition of fibrinogen binding to GP IIb/IIIa by a GP IIIa peptide", J. Biol. Chem. 266(3) (1991): 1415-1421.) Assay buffer, OPD substrate tablets, and RIA grade BSA were obtained from Sigma (St. Louis, Mo.). Anti-biotin antibody was obtained from Calbiochem (La Jolla, Calif.). Linbro microtiter plates were obtained from Flow Labs (McLean, Va.). ADP reagent was obtained from Sigma (St. Louis, Mo.). This assay is essentially the same reported in […]., Bader, R., Byers-Ward, […]., Plow, E. F. and Ruggeri, Z. M., "Increased surface expression of the membrane glycoprotein IIb/IIIa complex induced by platelet activation: Relationships to the binding of fibrinogen and platelet aggregation", Blood 70(1987):475-483. The purified human fibrinogen receptor (αIIb β3) was diluted from stock solutions to 1.0 μg/mL in Tris-buffered saline containing 1.0 mM Ca^++, Mg^++, and Mn^++, pH 7.4 (TBS^+++). The diluted receptor was immediately transferred to Linbro microtiter plates at 100 μL/well (100 ng receptor/well). The plates were sealed and incubated overnight at 4° C. to allow the receptor to bind to the wells. All remaining steps were at room temperature. The assay plates were emptied and 200 μL of 1% RIA grade BSA in TBS^+++ (TBS^+++ /BSA) were added to block exposed plastic surfaces. Following a 2 hour incubation, the assay plates were washed with TBS^+++ using a 96 well plate washer. Logarithmic serial dilution of the test compound and controls were made starting at a stock concentration of 2 mM and using 2 nM biotinylated vitronectin in TBS^+++ /BSA as the diluent. This premixing of labeled ligand with test (or control) ligand, and subsequent transfer of 50 μL aliquots to the assay plate was carried out with a CETUS Propette robot; the final concentration of the labeled ligand was 1 nM and the highest concentration of test compound was 1.0×10^-4 M. The competition occurred for two hours after which all wells were washed with a plate washer as before. Affinity purified horseradish peroxidase labeled goat anti-biotin antibody was diluted 1:3000 in TBS^+++ /BSA and 125 μL were added to each well. After 30 minutes, the plates were washed and incubated with […]/H2 O2 substrate in 100 mM/L citrate buffer, pH 5.0. The plate was read with a microtiter plate reader at a wavelength of 450 nm and when the maximum-binding control wells reached an absorbance of about 1.0, the final A450 were recorded for analysis. The data were analyzed using a macro written for use with the EXCELTM spreadsheet program. The mean, standard deviation, and %CV were determined for duplicate concentrations. The mean A450 values were normalized to the mean of four maximum-binding controls (no competitor added) (B-MAX). The normalized values were subjected to a four parameter curve fit algorithm, [Robard et al., Int.

Where [3] appears, read: inhibition of 50% of maximum binding of 1 nM biotinylated vitronectin, 2 h competition, room temperature, TBS+++ pH 7.4, read-out: AVB3 IC50.

As to `NC(=O)N=C(N)Nc1cccc(C(=O)Nc2ccc(C3CC3C(=O)O)cc2)c1` (stereo not drawn) [Example 8, 2-[4-[[[3-[(amino[(aminocarbonyl)imino]methyl]amino]phenyl]carbonyl]amino]phenyl]cyclopropanecarboxylic acid, trifluoroacetate salt], the figures for the pIC50 in experiment [1] (setting [3]) and in experiment [2] were 5.86 and 4.88, respectively.
Taken in the same sequence, the figures for `N=C(N)Nc1cc(C(=O)Nc2ccc(C3CC3C(=O)O)cc2)cc(C(F)(F)F)c1` (stereo not drawn) [Example 6, 2-[4-[[[3-[(aminoiminomethyl)amino]-5-(trifluoromethyl)phenyl]carbonyl]amino]phenyl]cyclopropanecarboxylic acid, trifluoroacetate salt] were 6.91 and 5.01.
On the same counts, the results for “2-[3-[[[[3-[(aminoiminomethyl)amino]phenyl]carbonyl]amino]methyl]phenyl]cyclopropanecarboxylic acid, trifluoroacetate salt [Example 3]” are 6.03 and 5.28.
Taken in the same sequence, the figures for `COc1cc(NC(=O)c2cccc(NC(=N)N)c2)ccc1C1CC1C(=O)O` (stereo not drawn) [Example 5, 2-[4-[[[3-[(aminoiminomethyl)amino]phenyl]carbonyl]amino]-2-methoxyphenyl]cyclopropanecarboxylic acid, trifluoroacetate salt] were 7.09 and 5.54.
For the compound `N=C(N)NCCCCC(=O)NCC(=O)NC(CC(=O)O)c1cccnc1` (stereo not drawn) [β-[[2-[[5-[(aminoiminomethyl)amino]-1-oxopentyl]amino]-1-oxoethyl]amino]-3-pyridinepropanoic acid, reference compound], the pIC50 in experiment [1] (positive control included on each plate, stated range, read-out: αv β3 antagonist IC50 (positive control)) was 8.00 to 8.52.
Regarding `N=C(N)Nc1cccc(C(=O)Nc2ccc(C3CC3C(=O)O)cc2)c1` (stereo not drawn) [Example 2, 2-[4-[[[3-[(aminoiminomethyl)amino]phenyl]carbonyl]amino]phenyl]cyclopropanecarboxylic acid, trifluoroacetate salt], the values for the pIC50 in experiment [1] (setting [3]) and in experiment [2] were 7.52 and 6.27, respectively.
Taken in the same sequence, the figures for `O=C(Nc1ccc(C2CC2C(=O)O)cc1)c1cccc(NC2=NCCCN2)c1` (stereo not drawn) [Example 7, 2-[4-[[[3-[(1,4,5,6-tetrahydropyrimidin-2-yl)amino]phenyl]carbonyl]amino]phenyl]cyclopropanecarboxylic acid, trifluoroacetate salt] were 7.72 and 5.32.
With `CCOC(=O)C1CC1c1ccc(NC(=O)c2cccc(NC(=N)N)c2)cc1` (stereo not drawn) [Example 1, ethyl 2-[4-[[[3-[(aminoiminomethyl)amino]phenyl]carbonyl]amino]phenyl]cyclopropanecarboxylate, monohydrate trifluoroacetate salt], the pIC50 was 6.28 in experiment [1] (setting [3]) and 5.44 in experiment [2].
